The target in this assay is T1, PD-1/PD-L1 (Homo sapiens, UniProt Q9NZQ7).
T1 construct: TVMV protease site linker (C); made in house; host or cells: HEK293T cells
Description: PD-1/PD-L1 Homogenous Time-Resolved Fluorescence (HTRF) binding assay. As to conditions: PD-L1-His 10 nM, PD-1-Ig 20 nM. The method, boiled down:
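Time-resolved FRET read-out using Eu-cryptate anti-Ig (1 nM final) and APC anti-His (20 nM final). Tagged extracellular domains were used in BSA/Tween-20-supplemented dPBS, with compound pre-incubated 15 min with PD-L1-His (10 nM) before PD-1-Ig (20 nM) was added for 15 min. Other human pairs: PD-L2-His 5 nM with PD-1-Ig 20 nM; PD-L1-Ig 10 nM with CD80-His 100 nM.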
Background: In TR-FRET formats the signal depends on donor and acceptor labels being close together.

T1 sequence (Q9NZQ7 18-239): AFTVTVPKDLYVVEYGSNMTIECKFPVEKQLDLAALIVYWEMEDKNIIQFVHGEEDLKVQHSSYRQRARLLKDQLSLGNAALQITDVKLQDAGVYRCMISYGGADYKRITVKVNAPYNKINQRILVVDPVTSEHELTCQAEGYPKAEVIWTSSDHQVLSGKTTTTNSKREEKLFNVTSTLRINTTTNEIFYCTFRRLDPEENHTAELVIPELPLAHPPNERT

Turning to `Cc1c(COc2cc(OCc3cncc(C#N)c3)c(CNCc3ncc[nH]3)cc2Cl)cccc1-c1cccc(OCCCN2CCC(O)(CO)CC2)c1Cl` [Example 2011, 5-((2-((((1H-imidazol-2-yl)methyl)amino)methyl)-4-chloro-5-((2′-chloro-3′-(3-(4-hydroxy-4-(hydroxymethyl)piperidin-1-yl)propoxy)-2-methyl-[1,1′-biphenyl]-3-yl)methoxy)phenoxy)methyl)nicotinonitrile], the half-inhibitory concentration (IC50) worked out at 2.8 nM. That is a single-digit nanomolar value.
For `Cc1c(COc2cc(OCc3cncc(C#N)c3)c(CNCc3cc[nH]n3)cc2Cl)cccc1-c1cccc(OCCCN2CCC(O)(CO)CC2)c1Cl` [Example 2012, 5-((2-((((1H-pyrazol-3-yl)methyl)amino)methyl)-4-chloro-5-((2′-chloro-3′-(3-(4-hydroxy-4-(hydroxymethyl)piperidin-1-yl)propoxy)-2-methyl-[1,1′-biphenyl]-3-yl)methoxy)phenoxy)methyl)nicotinonitrile] the value was 2.6 nM; for `Cc1c(COc2cc(OCc3cncc(C#N)c3)c(CN(C)Cc3ncn[nH]3)cc2Cl)cccc1-c1cccc(OCCCN2CCC(O)(CO)CC2)c1Cl` [Example 2013, 5-((2-((((1H-1,2,4-triazol-5-yl)methyl)(methyl)amino)methyl)-4-chloro-5-((2′-chloro-3′-(3-(4-hydroxy-4-(hydroxymethyl)piperidin-1-yl)propoxy)-2-methyl-[1,1′-biphenyl]-3-yl)methoxy)phenoxy)methyl)nicotinonitrile], 1.1 nM.
Next, `Cc1c(COc2cc(OCc3cncc(C#N)c3)c(CN(C)Cc3c[nH]cn3)cc2Cl)cccc1-c1cccc(OCCCN2CCC(O)(CO)CC2)c1Cl` [Example 2014, 5-((2-((((1H-imidazol-4-yl)methyl)(methyl)amino)methyl)-4-chloro-5-((2′-chloro-3′-(3-(4-hydroxy-4-(hydroxymethyl)piperidin-1-yl)propoxy)-2-methyl-[1,1′-biphenyl]-3-yl)methoxy)phenoxy)methyl)nicotinonitrile]: 0.5 nM; `Cc1c(COc2cc(OCc3cncc(C#N)c3)c(CN(C)Cc3ncc[nH]3)cc2Cl)cccc1-c1cccc(OCCCN2CCC(O)(CO)CC2)c1Cl` [Example 2015, 5-((2-((((1H-imidazol-2-yl)methyl)(methyl)amino)methyl)-4-chloro-5-((2′-chloro-3′-(3-(4-hydroxy-4-(hydroxymethyl)piperidin-1-yl)propoxy)-2-methyl-[1,1′-biphenyl]-3-yl)methoxy)phenoxy)methyl)nicotinonitrile]: 3.1 nM.
Next, `Cc1c(COc2cc(OCc3cncc(C#N)c3)c(CN(C)Cc3cc[nH]n3)cc2Cl)cccc1-c1cccc(OCCCN2CCC(O)(CO)CC2)c1Cl` [Example 2016, 5-((2-((((1H-pyrazol-3-yl)methyl)(methyl)amino)methyl)-4-chloro-5-((2′-chloro-3′-(3-(4-hydroxy-4-(hydroxymethyl)piperidin-1-yl)propoxy)-2-methyl-[1,1′-biphenyl]-3-yl)methoxy)phenoxy)methyl)nicotinonitrile]: 0.2 nM; `Cc1c(COc2cc(OCc3cncc(C#N)c3)c(CNCc3ccccn3)cc2Cl)cccc1-c1cccc(OCCCN2CC[C@@H](O)C2)c1C` [Example 2017, (R)-5-((4-chloro-5-((3′-(3-(3-hydroxypyrrolidin-1-yl)propoxy)-2,2′-dimethyl-[1,1′-biphenyl]-3-yl)methoxy)-2-(((pyridin-2-ylmethyl)amino)methyl)phenoxy)methyl)nicotinonitrile]: 2.1 nM.
In turn, `Cc1c(COc2cc(OCc3cncc(C#N)c3)c(CNCc3cccnc3)cc2Cl)cccc1-c1cccc(OCCCN2CC[C@@H](O)C2)c1C` [Example 2018, (R)-5-((4-chloro-5-((3′-(3-(3-hydroxypyrrolidin-1-yl)propoxy)-2,2′-dimethyl-[1,1′-biphenyl]-3-yl)methoxy)-2-(((pyridin-3-ylmethyl)amino)methyl)phenoxy)methyl)nicotinonitrile] came in with an IC50 of 0.8 nM.
The compound `Cc1c(COc2cc(OCc3cncc(C#N)c3)c(CNCc3ccncc3)cc2Cl)cccc1-c1cccc(OCCCN2CC[C@@H](O)C2)c1C` [Example 2019, (R)-5-((4-chloro-5-((3′-(3-(3-hydroxypyrrolidin-1-yl)propoxy)-2,2′-dimethyl-[1,1′-biphenyl]-3-yl)methoxy)-2-(((pyridin-4-ylmethyl)amino)methyl)phenoxy)methyl)nicotinonitrile] registered an IC50 of 4.1 nM.
Next, `Cc1c(COc2cc(OCc3cncc(C#N)c3)c(CNCc3cnccn3)cc2Cl)cccc1-c1cccc(OCCCN2CC[C@@H](O)C2)c1C` [Example 2020, (R)-5-((4-chloro-5-((3′-(3-(3-hydroxypyrrolidin-1-yl)propoxy)-2,2′-dimethyl-[1,1′-biphenyl]-3-yl)methoxy)-2-(((pyrazin-2-ylmethyl)amino)methyl)phenoxy)methyl)nicotinonitrile]: 2.7 nM.
Next, `Cc1c(COc2cc(OCc3cncc(C#N)c3)c(CNCc3cccnn3)cc2Cl)cccc1-c1cccc(OCCCN2CC[C@@H](O)C2)c1C` [Example 2021, (R)-5-((4-chloro-5-((3′-(3-(3-hydroxypyrrolidin-1-yl)propoxy)-2,2′-dimethyl-[1,1′-biphenyl]-3-yl)methoxy)-2-(((pyridazin-3-ylmethyl)amino)methyl)phenoxy)methyl)nicotinonitrile]: 6 nM; `Cc1c(COc2cc(OCc3cncc(C#N)c3)c(CNCc3cncnc3)cc2Cl)cccc1-c1cccc(OCCCN2CC[C@@H](O)C2)c1C` [Example 2022, (R)-5-((4-chloro-5-((3′-(3-(3-hydroxypyrrolidin-1-yl)propoxy)-2,2′-dimethyl-[1,1′-biphenyl]-3-yl)methoxy)-2-(((pyrimidin-5-ylmethyl)amino)methyl)phenoxy)methyl)nicotinonitrile]: 0.8 nM; `Cc1c(COc2cc(OCc3cncc(C#N)c3)c(CN(C)Cc3nc4ccccc4[nH]3)cc2Cl)cccc1-c1cccc(OCCCN2CC[C@@H](O)C2)c1C` [Example 2023, (R)-5-((2-((((1H-benzo[d]imidazol-2-yl)methyl)(methyl)amino)methyl)-4-chloro-5-((3′-(3-(3-hydroxypyrrolidin-1-yl)propoxy)-2,2′-dimethyl-[1,1′-biphenyl]-3-yl)methoxy)phenoxy)methyl)nicotinonitrile]: 8.8 nM.
Next, `Cc1c[nH]c(CN(C)Cc2cc(Cl)c(OCc3cccc(-c4cccc(OCCCN5CC[C@@H](O)C5)c4C)c3C)cc2OCc2cncc(C#N)c2)n1` [Example 2024, (R)-5-((4-chloro-5-((3′-(3-(3-hydroxypyrrolidin-1-yl)propoxy)-2,2′-dimethyl-[1,1′-biphenyl]-3-yl)methoxy)-2-((methyl((4-methyl-1H-imidazol-2-yl)methyl)amino)methyl)phenoxy)methyl)nicotinonitrile]: 0.6 nM.
Turning to `Cc1cc(CN(C)Cc2cc(Cl)c(OCc3cccc(-c4cccc(OCCCN5CC[C@@H](O)C5)c4C)c3C)cc2OCc2cncc(C#N)c2)[nH]n1` [Example 2025, (R)-5-((4-chloro-5-((3′-(3-(3-hydroxypyrrolidin-1-yl)propoxy)-2,2′-dimethyl-[1,1′-biphenyl]-3-yl)methoxy)-2-((methyl((3-methyl-1H-pyrazol-5-yl)methyl)amino)methyl)phenoxy)methyl)nicotinonitrile], the half-maximal inhibitory concentration (IC50) was 1.6 nM. This IC50 is about 2.7-fold higher than that of the compound before.
For `Cc1c(COc2cc(OCc3cncc(C#N)c3)c(CN(C)Cc3ccn(C)n3)cc2Cl)cccc1-c1cccc(OCCCN2CC[C@@H](O)C2)c1C` [Example 2026, (R)-5-((4-chloro-5-((3′-(3-(3-hydroxypyrrolidin-1-yl)propoxy)-2,2′-dimethyl-[1,1′-biphenyl]-3-yl)methoxy)-2-((methyl((1-methyl-1H-pyrazol-3-yl)methyl)amino)methyl)phenoxy)methyl)nicotinonitrile] the value was 1.9 nM; for `Cc1c(COc2cc(OCc3cncc(C#N)c3)c(CN(C)Cc3nn(C)cc3Cl)cc2Cl)cccc1-c1cccc(OCCCN2CC[C@@H](O)C2)c1C` [Example 2027, (R)-5-((4-chloro-2-((((4-chloro-1-methyl-1H-pyrazol-3-yl)methyl)(methyl)amino)methyl)-5-((3′-(3-(3-hydroxypyrrolidin-1-yl)propoxy)-2,2′-dimethyl-[1,1′-biphenyl]-3-yl)methoxy)phenoxy)methyl)nicotinonitrile], 2.3 nM.
`Cc1c(COc2cc(OCc3cncc(C#N)c3)c(CN(C)Cc3ccccn3)cc2Cl)cccc1-c1cccc(OCCCN2CC[C@@H](O)C2)c1C` [Example 2028, (R)-5-((4-chloro-5-((3′-(3-(3-hydroxypyrrolidin-1-yl)propoxy)-2,2′-dimethyl-[1,1′-biphenyl]-3-yl)methoxy)-2-((methyl(pyridin-2-ylmethyl)amino)methyl)phenoxy)methyl)nicotinonitrile]: the IC50 was found to be 0.2 nM. This IC50 lies about 11-fold lower than the previous one.
Next, `Cc1c(COc2cc(OCc3cncc(C#N)c3)c(CN(C)Cc3ccncc3)cc2Cl)cccc1-c1cccc(OCCCN2CC[C@@H](O)C2)c1C` [Example 2029, (R)-5-((4-chloro-5-((3′-(3-(3-hydroxypyrrolidin-1-yl)propoxy)-2,2′-dimethyl-[1,1′-biphenyl]-3-yl)methoxy)-2-((methyl(pyridin-4-ylmethyl)amino)methyl)phenoxy)methyl)nicotinonitrile]: 4.1 nM; `Cc1c(COc2cc(OCc3cncc(C#N)c3)c(CN(C)Cc3cnccn3)cc2Cl)cccc1-c1cccc(OCCCN2CC[C@@H](O)C2)c1C` [Example 2030, (R)-5-((4-chloro-5-((3′-(3-(3-hydroxypyrrolidin-1-yl)propoxy)-2,2′-dimethyl-[1,1′-biphenyl]-3-yl)methoxy)-2-((methyl(pyrazin-2-ylmethyl)amino)methyl)phenoxy)methyl)nicotinonitrile]: 1.1 nM.

For orientation: IC50 means the point on the concentration scale where inhibition reaches its midpoint. Low readings indicate greater potency, high ones weaker potency.

The values are drawn from US20240124417A1, “COMPOUNDS USEFUL AS IMMUNOMODULATORS” (Bristol-Myers Squibb Company, priority 2019, published 2024).
